Results reported in patent US11377442B2, “Small molecule agonists and antagonists of NR2F6 activity” (ZANDER THERAPEUTICS, INC., priority 2016, dated 2022).
Read-outs that look alike come from different tables or passages of the source. One block for each compound: values may come before it.

What was measured:
Type in all cases: cell-based
NR2F6 = biological target: T1, NR2F6 (Homo sapiens, UniProt P10588); assay: NR2F6 agonist screening, Firefly signal cmpd/DMSO
T1 construct: expressed in transfected cells; also transient transfection
T1 sequence (P10588 1-404): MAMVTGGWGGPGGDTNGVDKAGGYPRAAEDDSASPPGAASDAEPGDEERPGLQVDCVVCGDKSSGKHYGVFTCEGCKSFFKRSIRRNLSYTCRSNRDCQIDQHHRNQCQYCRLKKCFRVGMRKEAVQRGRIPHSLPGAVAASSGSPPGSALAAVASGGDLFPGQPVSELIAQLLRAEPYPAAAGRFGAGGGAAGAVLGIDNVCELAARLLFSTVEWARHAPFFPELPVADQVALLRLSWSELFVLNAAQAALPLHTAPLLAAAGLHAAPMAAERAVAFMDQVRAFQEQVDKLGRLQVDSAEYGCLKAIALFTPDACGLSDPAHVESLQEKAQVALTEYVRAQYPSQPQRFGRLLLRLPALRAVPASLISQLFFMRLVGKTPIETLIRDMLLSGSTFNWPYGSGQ

Renilla [1] = assay: Renilla signal in NR2F6 agonist screening, cmpd/DMSO; conditions: Renilla
HEK293 pGL4 = assay: Firefly_pGL signal, cmpd/DMSO (pGL4 control cells); conditions: Homo sapiens
NR2F6 LBD = biological target: T2, NR2F6 LBD (Homo sapiens, UniProt P10588); assay: NR2F6 LBD transient transfection
T2 construct: expressed in transfected cells
T2 sequence (P10588 165-393 limits assumed): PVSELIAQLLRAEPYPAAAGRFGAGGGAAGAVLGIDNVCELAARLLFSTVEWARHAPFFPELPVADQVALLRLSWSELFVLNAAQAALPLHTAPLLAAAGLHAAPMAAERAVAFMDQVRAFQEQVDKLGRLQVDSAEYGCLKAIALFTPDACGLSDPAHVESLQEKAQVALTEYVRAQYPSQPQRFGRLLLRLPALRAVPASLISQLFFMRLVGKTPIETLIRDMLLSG
In short: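 LBD-transfected cells treated at 40, 10, 2 and 0.5 μM (4 replicates); cytotoxicity measured in parallel, normalized to DMSO (0%) and zero signal (100%). Higher concentrations excluded where signal loss reflected toxicity.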

Renilla [2] = assay: Renilla signal, LBD, cmpd/DMSO (NR2F6 LBD transfected cells)
[3] = read-out: Renilla F4, cmpd/DMSO (mean)
[4] = F4, 1% FBS, read-out: Renilla, F4, 1% FBS, cmpd/DMSO (mean)
[5] = F4, 10% FBS, read-out: Renilla, F4, 10% FBS, cmpd/DMSO (mean)
[6] = HEK293, 0.5 uM, read-out: Firefly pGL4, cmpd/DMSO (mean)
[7] = HEK293, 2 uM, read-out: Firefly pGL4, cmpd/DMSO (mean)
[8] = HEK293, 10 uM, read-out: Firefly pGL4, cmpd/DMSO (mean)
[9] = HEK293, 40 uM, read-out: Firefly pGL4, cmpd/DMSO (mean)
[10] = HEK293, pGL4, 1% FBS, 0.5 uM, read-out: Firefly, pGL4, 1% FBS, cmpd/DMSO (mean)
[11] = HEK293, pGL4, 1% FBS, 2 uM, read-out: Firefly, pGL4, 1% FBS, cmpd/DMSO (mean)
[12] = HEK293, pGL4, 1% FBS, 10 uM, read-out: Firefly, pGL4, 1% FBS, cmpd/DMSO (mean)
[13] = HEK293, pGL4, 1% FBS, 40 uM, read-out: Firefly, pGL4, 1% FBS, cmpd/DMSO (mean)
[14] = HEK293, pGL4, 10% FBS, 0.5 uM, read-out: Firefly, pGL4, 10% FBS, cmpd/DMSO (mean)
[15] = HEK293, pGL4, 10% FBS, 2 uM, read-out: Firefly, pGL4, 10% FBS, cmpd/DMSO (mean)
[16] = HEK293, pGL4, 10% FBS, 10 uM, read-out: Firefly, pGL4, 10% FBS, cmpd/DMSO (mean)
[17] = HEK293, pGL4, 10% FBS, 40 uM, read-out: Firefly, pGL4, 10% FBS, cmpd/DMSO (mean)

Firefly F4, cmpd/DMSO (mean) (NR2F6; 0.5 uM): 1.1 | Firefly F4, cmpd/DMSO (mean) (NR2F6; 2 uM): 1.3 | Firefly F4, cmpd/DMSO (mean) (NR2F6; 10 uM): 2.0 | Firefly F4, cmpd/DMSO (mean) (NR2F6; 40 uM): 0.6 | F4, Firefly/Renilla for S/B(F4) > 3 (NR2F6; 1% FBS, 10 uM): 1.9 | Firefly, F4/pGL4 for S/B(F4) > 3 (NR2F6; 1% FBS, 10 uM): 2.7 | F4, Firefly/Renilla for S/B(F4) > 3 (NR2F6; 1% FBS, 40 uM): 1.0 | Firefly, F4/pGL4 for S/B(F4) > 3 (NR2F6; 1% FBS, 40 uM): 2.4 | F4, Firefly/Renilla for S/B(F4) > 3 (NR2F6; 10% FBS, 10 uM): 2.2 | Firefly, F4/pGL4 for S/B(F4) > 3 (NR2F6; 10% FBS, 10 uM): 2.2 | F4, Firefly/Renilla for S/B(F4) > 3 (NR2F6; 10% FBS, 40 uM): 3.3 | Firefly, F4/pGL4 for S/B(F4) > 3 (NR2F6; 10% FBS, 40 uM): 3.1 | Firefly, F4, 1% FBS, cmpd/DMSO (mean) (NR2F6; 1% FBS, 0.5 uM): 1.2 | Firefly, F4, 1% FBS, cmpd/DMSO (mean) (NR2F6; 1% FBS, 2 uM): 2.2 | Firefly, F4, 1% FBS, cmpd/DMSO (mean) (NR2F6; 1% FBS, 10 uM): 3.9 | Firefly, F4, 1% FBS, cmpd/DMSO (mean) (NR2F6; 1% FBS, 40 uM): 3.4 | Firefly, F4, 10% FBS, cmpd/DMSO (mean) (NR2F6; 10% FBS, 0.5 uM): 0.9 | Firefly, F4, 10% FBS, cmpd/DMSO (mean) (NR2F6; 10% FBS, 2 uM): 1.4 | Firefly, F4, 10% FBS, cmpd/DMSO (mean) (NR2F6; 10% FBS, 10 uM): 4.6 | Firefly, F4, 10% FBS, cmpd/DMSO (mean) (NR2F6; 10% FBS, 40 uM): 13 | Firefly LBD, cmpd/DMSO (mean) (NR2F6 LBD; 0.5 uM): 1.1 | Firefly LBD, cmpd/DMSO (mean) (NR2F6 LBD; 2 uM): 2.0 | Firefly LBD, cmpd/DMSO (mean) (NR2F6 LBD; 10 uM): 3.2 | Firefly LBD, cmpd/DMSO (mean) (NR2F6 LBD; 40 uM): 0.4
SMILES: O=S1(=O)C[C@H](NCCCc2ccccc2)[C@@H](S(=O)(=O)c2ccc(Cl)cc2)C1 [Compound D137]
fold induction at 0.5 µM (Renilla [1]; [3]): 1.1 | fold induction at 2 µM (Renilla [1]; [3]): 1.1 | fold induction at 10 µM (Renilla [1]; [3]): 1.8 | fold induction at 40 µM (Renilla [1]; [3]): 2.6 | fold induction at 0.5 µM (Renilla [1]; [4]): 1 | fold induction at 2 µM (Renilla [1]; [4]): 1.3 | fold induction at 10 µM (Renilla [1]; [4]): 2.1 | fold induction at 40 µM (Renilla [1]; [4]): 3.5 | fold induction at 0.5 µM (Renilla [1]; [5]): 1.2 | fold induction at 2 µM (Renilla [1]; [5]): 1.4 | fold induction at 10 µM (Renilla [1]; [5]): 2.1 | fold induction at 40 µM (Renilla [1]; [5]): 4 | fold induction at 0.5 µM (HEK293 pGL4; [6]): 0.8 | fold induction at 2 µM (HEK293 pGL4; [7]): 1.2 | fold induction at 10 µM (HEK293 pGL4; [8]): 1.5 | fold induction at 40 µM (HEK293 pGL4; [9]): 1.5 | fold induction at 0.5 µM (HEK293 pGL4; [10]): 1 | fold induction at 2 µM (HEK293 pGL4; [11]): 1 | fold induction at 10 µM (HEK293 pGL4; [12]): 1.5 | fold induction at 40 µM (HEK293 pGL4; [13]): 1.5 | fold induction at 0.5 µM (HEK293 pGL4; [14]): 0.7 | fold induction at 2 µM (HEK293 pGL4; [15]): 1.1 | fold induction at 10 µM (HEK293 pGL4; [16]): 2.1 | fold induction at 40 µM (HEK293 pGL4; [17]): 4.3 | Renilla LBD, cmpd/DMSO (mean) (Renilla [2]; 0.5 uM): 1.0 | Renilla LBD, cmpd/DMSO (mean) (Renilla [2]; 2 uM): 1.0 | Renilla LBD, cmpd/DMSO (mean) (Renilla [2]; 10 uM): 0.8 | Renilla LBD, cmpd/DMSO (mean) (Renilla [2]; 40 uM): 0.4

SMILES: CC(C)OCCCN[C@H]1CS(=O)(=O)C[C@@H]1S(=O)(=O)c1ccc(Cl)cc1 [Compound D138]
Firefly F4, cmpd/DMSO (mean) (NR2F6; 0.5 uM): 1.0 | Firefly F4, cmpd/DMSO (mean) (NR2F6; 2 uM): 1.1 | Firefly F4, cmpd/DMSO (mean) (NR2F6; 10 uM): 2.6 | Firefly F4, cmpd/DMSO (mean) (NR2F6; 40 uM): 1.7 | F4, Firefly/Renilla for S/B(F4) > 3 (NR2F6; 1% FBS, 10 uM): 2.2 | Firefly, F4/pGL4 for S/B(F4) > 3 (NR2F6; 1% FBS, 10 uM): 2.7 | F4, Firefly/Renilla for S/B(F4) > 3 (NR2F6; 1% FBS, 40 uM): 1.1 | Firefly, F4/pGL4 for S/B(F4) > 3 (NR2F6; 1% FBS, 40 uM): 1.9 | F4, Firefly/Renilla for S/B(F4) > 3 (NR2F6; 10% FBS, 10 uM): 1.6 | Firefly, F4/pGL4 for S/B(F4) > 3 (NR2F6; 10% FBS, 10 uM): 1.8 | F4, Firefly/Renilla for S/B(F4) > 3 (NR2F6; 10% FBS, 40 uM): 3.2 | Firefly, F4/pGL4 for S/B(F4) > 3 (NR2F6; 10% FBS, 40 uM): 3.2 | Firefly, F4, 1% FBS, cmpd/DMSO (mean) (NR2F6; 1% FBS, 0.5 uM): 0.8 | Firefly, F4, 1% FBS, cmpd/DMSO (mean) (NR2F6; 1% FBS, 2 uM): 1.9 | Firefly, F4, 1% FBS, cmpd/DMSO (mean) (NR2F6; 1% FBS, 10 uM): 4.2 | Firefly, F4, 1% FBS, cmpd/DMSO (mean) (NR2F6; 1% FBS, 40 uM): 3.3 | Firefly, F4, 10% FBS, cmpd/DMSO (mean) (NR2F6; 10% FBS, 0.5 uM): 1.8 | Firefly, F4, 10% FBS, cmpd/DMSO (mean) (NR2F6; 10% FBS, 2 uM): 1.3 | Firefly, F4, 10% FBS, cmpd/DMSO (mean) (NR2F6; 10% FBS, 10 uM): 3.1 | Firefly, F4, 10% FBS, cmpd/DMSO (mean) (NR2F6; 10% FBS, 40 uM): 12 | fold induction at 0.5 µM (Renilla [1]; [3]): 0.8 | fold induction at 2 µM (Renilla [1]; [3]): 1 | fold induction at 10 µM (Renilla [1]; [3]): 1.2 | fold induction at 40 µM (Renilla [1]; [3]): 2.3 | fold induction at 0.5 µM (Renilla [1]; [4]): 1.3 | fold induction at 2 µM (Renilla [1]; [4]): 1.4 | fold induction at 10 µM (Renilla [1]; [4]): 1.9 | fold induction at 40 µM (Renilla [1]; [4]): 2.9 | fold induction at 0.5 µM (Renilla [1]; [5]): 1.4 | fold induction at 2 µM (Renilla [1]; [5]): 1.4 | fold induction at 10 µM (Renilla [1]; [5]): 2 | fold induction at 40 µM (Renilla [1]; [5]): 3.6 | fold induction at 0.5 µM (HEK293 pGL4; [6]): 0.9 | fold induction at 2 µM (HEK293 pGL4; [7]): 0.9 | fold induction at 10 µM (HEK293 pGL4; [8]): 1.5 | fold induction at 40 µM (HEK293 pGL4; [9]): 1.5 | fold induction at 0.5 µM (HEK293 pGL4; [10]): 1 | fold induction at 2 µM (HEK293 pGL4; [11]): 1 | fold induction at 10 µM (HEK293 pGL4; [12]): 1.6 | fold induction at 40 µM (HEK293 pGL4; [13]): 1.7 | fold induction at 0.5 µM (HEK293 pGL4; [14]): 1.1 | fold induction at 2 µM (HEK293 pGL4; [15]): 1 | fold induction at 10 µM (HEK293 pGL4; [16]): 1.7 | fold induction at 40 µM (HEK293 pGL4; [17]): 3.6 | Firefly LBD, cmpd/DMSO (mean) (NR2F6 LBD; 0.5 uM): 1.3 | Firefly LBD, cmpd/DMSO (mean) (NR2F6 LBD; 2 uM): 1.8 | Firefly LBD, cmpd/DMSO (mean) (NR2F6 LBD; 10 uM): 3.7 | Firefly LBD, cmpd/DMSO (mean) (NR2F6 LBD; 40 uM): 0.4 | Renilla LBD, cmpd/DMSO (mean) (Renilla [2]; 0.5 uM): 0.9 | Renilla LBD, cmpd/DMSO (mean) (Renilla [2]; 2 uM): 1.1 | Renilla LBD, cmpd/DMSO (mean) (Renilla [2]; 10 uM): 0.9 | Renilla LBD, cmpd/DMSO (mean) (Renilla [2]; 40 uM): 0.3
